Measurements reported in patent publication US9758494B2, “N-(oxazol-2-yl)-aryl-carboxylic acid amides and use thereof as herbicides” (BAYER CROPSCIENCE AG, priority 2012, dated 2017).

Experiments:
Type in all cases: in vivo
[1] = test system: Brassica napus (Oilseed Rape); test: Post-emergence, damage of crop plants
Procedure: (§1) Seeds of monocotyledonous and dicotyledonous weed plants and crop plants are laid out in wood fiber pots in sandy loam, covered with soil and cultivated in a greenhouse under good growth conditions. 2 to 3 weeks after sowing, the test plants are treated at the one-leaf stage. The compounds according to the invention, formulated in the form of wettable powders (WP) or as emulsion concentrates (EC), are then sprayed onto the green parts of the plants in the form of an aqueous suspension or emulsion at a water application rate equating to 600 to 800 l/ha, with addition of 0.2% wetting agent. After the test plants have been left to stand in the greenhouse under optimal growth conditions for about 3 weeks, the action of the preparations is assessed visually in comparison to untreated controls (herbicidal action in percent (%): 100% activity=the plants have died, 0% activity=like control plants). Here, for example, compounds No. 1-163, 1-171, 1-172, 1-173, 1-254, 1-283, 1-284, 1-293, 1-294 and 1-334, at an application rate of 80 g/ha, have an activity of at least 80% against Abutilon theophrasti and Amaranthus retroflexus.
(§2) In the tables below, the properties of the compounds according to the invention are compared to those of the structurally most similar compounds known from WO 2012/028579 A1. These tests were carried out by the pre- and post-emergence method under the conditions mentioned under item 1 and item 2. Here, the herbicidal activity against various harmful plants and the damage of some important crop plants were compared at different dosages.

[2] = test system: Avena fatua; test: Pre-emergence herbicidal action
Excerpt: (§3) Seeds of monocotyledonous and dicotyledonous weed plants and crop plants are laid out in wood-fiber pots in sandy loam and covered with soil. The compounds according to the invention, formulated in the form of wettable powders (WP) or as emulsion concentrates (EC), are then applied to the surface of the soil cover in the form of an aqueous suspension or emulsion at a water application rate equating to 600 to 800 l/ha, with addition of 0.2% wetting agent. After the treatment, the pots are placed in a greenhouse and kept under good growth conditions for the test plants. The damage to the test plants is assessed visually after a test period of 3 weeks by comparison with untreated controls (herbicidal activity in percent (%): 100% activity=the plants have died, 0% activity=like control plants). Here, for example, compounds No. 1-163, 1-171, 1-172, 1-283, 1-284, 1-294, 1-295, 1-334, 10-001 and 11-343, at an application rate of 320 g/ha, have an activity of at least 80% against Veronica persica.
as §2

[3] = test system: Lolium multiflorum; test: Post-emergence herbicidal action
Procedure: as §1, §2

[4] = test system: Cyperus serotinus; test: Post-emergence herbicidal action; details: Dosage 80/ha (Table Q)
Procedure: as §1, §2

[5] = test system: Oryza sativa (Rice); test: Post-emergence, damage of crop plants
Procedure: as §1, §2

[6] = test system: Lolium multiflorum; test: Pre-emergence herbicidal action
Excerpt: as §3, §2

[7] = test system: Polygonum convolvulus; test: Pre-emergence herbicidal action
Excerpt: as §3, §2

[8] = test system: Oryza sativa (Rice); test: Pre-emergence, damage of crop plants
Excerpt: as §3, §2

[9] = test system: Brassica napus (Oilseed Rape); test: Pre-emergence, damage of crop plants
Excerpt: as §3, §2

[10] = test system: Zea mays (Corn); test: Pre-emergence, damage of crop plants; details: Dosage 320/ha (Table G)
Excerpt: as §3, §2

[11] = test system: Pharbitis purpureum; test: Post-emergence herbicidal action; details: Dosage 20/ha (Table S)
Procedure: as §1, §2

[12] = test system: Zea mays (Corn); test: Post-emergence, damage of crop plants
Procedure: as §1, §2

[13] = test system: Triticum aestivum (Wheat); test: Post-emergence, damage of crop plants
Procedure: as §1, §2

[14] = test system: Triticum aestivum (Wheat); test: Pre-emergence, damage of crop plants
Excerpt: as §3, §2

[15] = test system: Setaria viridis; test: Post-emergence herbicidal action
Procedure: as §1, §2

[16] = test system: Avena fatua; test: Post-emergence herbicidal action; details: Dosage 80/ha (Table P)
Procedure: as §1, §2

[17] = test system: Alopecurus myosuroides; test: Post-emergence herbicidal action; details: Dosage 80/ha (Table P)
Procedure: as §1, §2

[18] = test system: Alopecurus myosuroides; test: Pre-emergence herbicidal action; details: Dosage 320/ha (Table D)
Excerpt: as §3, §2

[19] = test system: Veronica persica; test: Post-emergence herbicidal action; details: Dosage 5/ha (Table T)
Procedure: as §1, §2

[20] = test system: Stellaria media; test: Post-emergence herbicidal action; details: Dosage 5/ha (Table T)
Procedure: as §1, §2

[21] = test system: Matricaria inodora; test: Pre-emergence herbicidal action; details: Dosage 80/ha (Table H)
Excerpt: as §3, §2

[22] = test system: Echinochloa crus galli; test: Pre-emergence herbicidal action; details: Dosage 80/ha (Table H)
Excerpt: as §3, §2

Q: What does the source list for CCS(=O)(=O)c1ccc(C(=O)Nc2nnnn2C)c(Cl)c1C1=NOC(CC#N)C1 (stereo not shown) [WO 2012/028579, No. 4-268]?
A: Damage of BRSNW ([1]; 5 g/ha (Table W)): 80%; Damage of BRSNW ([1]; 20 g/ha (Table W)): 100%; Herbicidal activity against AVEFA ([2]; 20 g/ha (Table K)): 0%; Herbicidal activity against AVEFA ([2]; 80 g/ha (Table K)): 0%

Q: Which results are given for Cn1nnnc1NC(=O)c1ccc(S(C)(=O)=O)c([S+](C)[O-])c1Cl (stereo not shown) [WO 2012/028579, No. 4-293]?
A: herbicidal activity, Harmful plants LOLMU ([3]; Dosage 80/ha (Table Q)): 40%; herbicidal activity, Harmful plants CYPES [4]: 40%; damage of crop plants, Crop plant ORYZA ([5]; Dosage 80/ha (Table Q)): 40%; herbicidal activity against harmful plants LOLMU ([6]; Dosage 320/ha (Table F)): 20%; herbicidal activity against harmful plants POLCO ([7]; Dosage 320/ha (Table F)): 20%

Q: Cn1nnnc1NC(=O)c1ccc(C(F)(F)F)c([S+](C)[O-])c1Cl (stereo not shown) [WO 2012/028579, No. 4-639] was tested. Which “damage of crop plants ORYZA” value ([8]; Dosage 320/ha (Table G)) did it give?
A: The value was 90%.

Q: What about the “damage of crop plants BRSNW” value ([9]; Dosage 320/ha (Table G)) of the same compound?
A: Its value is 90%.

Q: What about the “damage of crop plants ZEAMX” value [10] of the same compound?
A: Its value is 40%.

Q: And the “herbicidal activity, Harmful plant PHBPU” value [11]?
A: The value was 40%.

Q: And the “damage of crop plants, Crop plants ORYZA” value ([5]; Dosage 20/ha (Table S))?
A: The value was 60%.

Q: What about the “damage of crop plants, Crop plants ZEAMX” value ([12]; Dosage 20/ha (Table S)) of the same compound?
A: The value was 80%.

Q: What about the “damage of crop plants, Crop plants TRZAS” value ([13]; Dosage 20/ha (Table S)) of the same compound?
A: The value was 100%.

Q: Which “damage of crop plants ORYZA” value ([8]; Dosage 80/ha (Table B)) does the source give for CCn1nnnc1NC(=O)c1ccc(C(F)(F)F)c(SC)c1C [WO 2012/028579, No. 5-146] here?
A: The value was 90%.

Q: And the “damage of crop plants BRSNW” value ([9]; Dosage 80/ha (Table B))?
A: The value was 90%.

Q: And the “damage of crop plants TRZAS” value ([14]; Dosage 80/ha (Table B))?
A: The value was 30%.

Q: And the “damage of crop plants ORYZA” value ([5]; Dosage 80/ha (Table N))?
A: The value was 80%.

Q: And the “damage of crop plants BRSNW” value ([1]; Dosage 80/ha (Table N))?
A: Its value is 100%.

Q: And the “damage of crop plants TRZAS” value ([13]; Dosage 80/ha (Table N))?
A: Its value is 60%.

Q: With CCn1nnnc1NC(=O)c1ccc(S(C)(=O)=O)c([S+](C)[O-])c1Cl (stereo not shown) [WO 2012/028579, No. 5-294] as the compound, how does the “herbicidal activity against harmful plants LOLMU” value ([3]; Dosage 20/ha (Table R)) read?
A: The value was 10%.

Q: And the “herbicidal activity against harmful plants SETVI” value ([15]; Dosage 20/ha (Table R))?
A: The value was 0%.

Q: What does the source list for Cc1c(C(=O)Nc2nnnn2-c2ccccc2)ccc(S(C)(=O)=O)c1S(C)(=O)=O [WO 2012/028579, No. 6-189]?
A: damage of crop plants, Crop plant ORYZA ([8]; Dosage 320/ha (Table E)): 80%; damage of crop plants, Crop plant BRSNW ([9]; Dosage 320/ha (Table D)): 90%; damage of crop plants, Crop plant TRZAS ([14]; Dosage 320/ha (Table E)): 30%; herbicidal activity against harmful plants LOMU ([3]; Dosage 80/ha (Table P)): 0%; herbicidal activity against harmful plants AVEFA [16]: 0%; herbicidal activity against harmful plants SETVI ([15]; Dosage 80/ha (Table P)): 20%; herbicidal activity against harmful plants ALOMY [17]: 0%; herbicidal activity, Harmful plant LOLMU ([6]; Dosage 320/ha (Table E)): 70%; herbicidal activity, Harmful plant ALOMY [18]: 0%; herbicidal activity, Harmful plant POLCO ([7]; Dosage 320/ha (Table E)): 0%

Q: What does the source list for CCS(=O)(=O)c1ccc(C(=O)Nc2nnnn2-c2ccccc2)c(Cl)c1C1=NOC(CC#N)C1 (stereo not shown) [WO 2012/028579, No. 6-268]?
A: Damage of BRSNW ([1]; 20 g/ha (Table X)): 20%; Damage of BRSNW ([1]; 80 g/ha (Table X)): 60%; Herbicidal activity against AVEFA ([2]; 20 g/ha (Table L)): 0%; Herbicidal activity against AVEFA ([2]; 80 g/ha (Table L)): 0%

Q: Which “herbicidal activity against harmful plants VERPE” value [19] does the source give for Cn1ncnc1NC(=O)c1ccc(C(F)(F)F)nc1Cl [WO 2012/028579, No. 8-9] here?
A: Its value is 60%.

Q: And the “herbicidal activity against harmful plants STEME” value [20]?
A: The value was 10%.

Q: What about the “herbicidal activity against harmful plants MATIN” value [21] of the same compound?
A: Its value is 60%.

Q: What about the “herbicidal activity against harmful plants ECGCG” value [22] of the same compound?
A: The value was 0%.

Q: For Cn1nnnc1NC(=O)c1ccc(C(F)(F)F)nc1Cl [WO 2012/028579, No. 8-10], which “Damage of ORYZA” value ([8]; 20 g/ha (Table I)) is on record?
A: The value was 50%.

Q: And the “Damage of ORYZA” value ([8]; 80 g/ha (Table I))?
A: Its value is 90%.

Q: What about the “damage of crop plants ORYZA” value ([5]; Dosage 80 g/ha (Table U)) of the same compound?
A: Its value is 90%.

Q: And the “damage of crop plants ZEAMX” value ([12]; Dosage 80 g/ha (Table U))?
A: The value was 90%.
